According to publication PMC11204507, “Mechanistic Insights into the Neurotoxicity of 2,5-Dimethoxyphenethylamines (2C) and Corresponding N-(2-methoxybenzyl)phenethylamine (NBOMe) Drugs” (Journal of Xenobiotics, 2024):

Columns and labels:
Assay type in all cases: cell-based, human
[1] = tested on: differentiated SH-SY5Y cells; assay: Mitochondrial membrane potential, JC-1 dye; conditions: control 100.0%
Text: Mitochondrial membrane potential (ΔΨm) is a valuable parameter that reflects the energy status and functional integrity of cells, and the JC-1 dye is widely used as an indicator of ΔΨm. In healthy cells with high ΔΨm, JC-1 forms J-aggregates that emit red fluorescence. In apoptotic or unhealthy cells with low ΔΨm, JC-1 remains in its monomeric form and emits green fluorescence. The ratio of red to green fluorescence intensity is proportional to the degree of polarization of the mitochondrial membrane (a higher ratio indicates a more polarized membrane).
Thus, the SH-SY5Y cells were seeded onto 24-well plates (25,000 cells/cm^2) following the previously described seeding and differentiation protocol. On the day of the experiment, the cells were exposed to different concentrations of the tested drugs (EC20 and EC50) for 24 h (37 °C, 5% CO2). CCCP (100 µM, 2 h) was used as a positive control for mitochondrial membrane depolarization. At the end of the incubation period, the medium was removed, and the cells were incubated, for 30 min, with 10 µM JC-1 under light protection (37 °C, 5% CO2). Subsequently, the plates were centrifuged (5 min, 300× g, room temperature), the supernatants were rejected, and the cells were washed 2 times with warm HBSS with calcium and magnesium. Fluorescence was recorded at the wavelengths of 485 nm excitation and 535 nm emission for JC-1 monomers and 535 nm excitation and 595 nm emission wavelengths for J-aggregates in a multi-well plate reader (PowerWaveX, BioTek Instruments, Winooski, VT, USA). The results are presented as the percentage of JC-1 red/green fluorescence ratio relative to the control cells, and a minimum of 5 independent experiments were conducted in triplicate.

[2] = tested on: differentiated SH-SY5Y cells; assay: Neutral red (NR) uptake cytotoxicity assay; conditions: for EC50: Homo sapiens; for EC20 (concentration inducing 20% of cytotoxicity) / EC80 (concentration inducing 80% of cytotoxicity): NR uptake; for Bottom (baseline, % control) / Top (maximal cell death, % control): fitted NR curve, SH-SY5Y cells
Protocol: (§1) The cells were seeded at a density of 25,000 cells/cm^2. To achieve a more mature neuron-like phenotype, SH-SY5Y cells were initially cultured in a complete medium supplemented with RA (10 µM). Subsequently, 3 days post-seeding, TPA (80 nM) was added to each well, and the cells were maintained for another 3 days until use, thus achieving a dopaminergic phenotype. In all the experiments, the cells were used between passages 22 and 28.
(§2) The differentiated SH-SY5Y cells (25,000 cells/cm^2) and primary rat cortical cultures (150,000 cells/cm^2) were seeded onto 96-well plates as previously described.
(§3) Accordingly, 6 days after seeding (differentiated SH-SY5Y cells) or at 8 DIV (primary cultures), the cells were exposed, for 24 h (37 °C, 5% CO2), to different concentrations of the drugs (0–1000 µM). Thus, the tested concentrations ranged from 0 to 1000 µM for 2C-T-2 and 2C-T-4; 0 to 500 µM for 2C-T-7; 0 to 250 µM for 25T2-NBOMe, and 0 to 100 µM for 25T4-NBOMe and 25T7-NBOMe.
The NR uptake assay is based on the detection of viable cells through the incorporation of the NR dye by the cell’s lysosomes. In brief, after 24 h of exposure to the tested drugs, the differentiated SH-SY5Y cells and primary rat cortical cultures were incubated with NR (50 µg/mL in complete medium) for 90 or 210 min, respectively, at 37 °C, in a 5% CO2-95% air atmosphere. To extract the absorbed dye, an acidified ethanol solution was used, and the absorbance was then measured at 540 nm in a multi-well plate reader (PowerWaveX, BioTek Instruments, Winooski, VT, USA). The cytotoxicity was estimated by the percentage of NR uptake relative to the control cells, and a minimum of 4 independent experiments were conducted in triplicate.

[3] = tested on: differentiated SH-SY5Y cells; assay: MTT reduction cytotoxicity assay; conditions: for EC50: Homo sapiens, differentiated SH-SY5Y cells, 24 h of exposure, mean (95% CI); for Bottom (baseline, % control) / Top (maximal cell death, % control): fitted MTT curve, SH-SY5Y cells, 24 h
Protocol: as §1, §2, §3
The MTT reduction assay is based on the capacity of metabolically active cells to reduce the water-soluble yellow tetrazolium dye (MTT) into water-insoluble formazan crystals. In brief, after 24 h of exposure to the tested drugs, the differentiated SH-SY5Y cells were incubated with MTT (0.5 mg/mL in complete medium) for 90 min, at 37 °C, in a 5% CO2-95% air atmosphere. To solubilize the formed formazan crystals, an organic solvent (DMSO) was used, and the absorbance was then measured at 550 nm in a multi-well plate reader (PowerWaveX, BioTek Instruments, Winooski, VT, USA). The cytotoxicity was estimated by the percentage of MTT reduction relative to the control cells, and a minimum of 4 independent experiments were conducted in triplicate.

[4] = bound stated for both SH-SY5Y cells and primary rat cortical cultures, 24 h, read-out: EC50 values, NR uptake assay, both cellular models
[5] = differentiated SH-SY5Y cells, 24 h of exposure, mean (95% CI), read-out: NR EC50 Values
[6] = differentiated SH-SY5Y cells, 24 h, mean (95% CI)

CCSc1cc(OC)c(CCN)cc1OC.Cl [2C-T-2, 2-(4-(ethylthio)-2,5-dimethoxyphenyl)ethan-1-aminium chloride]
mitochondrial membrane polarization (JC-1 red/green ratio), % of the control cells ([1]; drug at its EC20, 24 h): 58.4% | mitochondrial membrane polarization (JC-1 red/green ratio), % of the control cells ([1]; drug at its EC50, 24 h): 55.2% | EC50 [2, 4]: > 215 µM | EC50 [2, 5]: 246 µM | EC20 (concentration inducing 20% of cytotoxicity) [2, 6]: 123.2 (107.1 to 138.8) μM | EC80 (concentration inducing 80% of cytotoxicity) [2, 6]: 491.0 (413.7 to 514.4) μM | Bottom (baseline, % control) ([2]; 24 h): 4.054 % control | Top (maximal cell death, % control) ([2]; 24 h): 100.0 % control | EC50 [3]: 306 µM | Bottom (baseline, % control) [3]: 4.516 % control | Top (maximal cell death, % control) [3]: 97.13 % control

COc1cc(SC(C)C)c(OC)cc1CCN.Cl [2C-T-4, 2-(4-(isopropylthio)-2,5-dimethoxyphenyl)ethan-1-aminium chloride]
mitochondrial membrane polarization (JC-1 red/green ratio), % of the control cells ([1]; drug at its EC20, 24 h): 58.3% | mitochondrial membrane polarization (JC-1 red/green ratio), % of the control cells ([1]; drug at its EC50, 24 h): 56.1% | EC50 [2, 5]: 154 µM | EC20 (concentration inducing 20% of cytotoxicity) [2, 6]: 81.5 (79.9 to 92.1) μM | EC80 (concentration inducing 80% of cytotoxicity) [2, 6]: 291.4 (255.9 to 342.3) μM | Bottom (baseline, % control) ([2]; 24 h): 5.069 % control | Top (maximal cell death, % control) ([2]; 24 h): 96.98 % control | EC50 [3]: 191 µM | Bottom (baseline, % control) [3]: 4.106 % control | Top (maximal cell death, % control) [3]: 99.28 % control

CCCSc1cc(OC)c(CCN)cc1OC.Cl [2C-T-7, 2-(2,5-dimethoxy-4-(propylthio)phenyl)ethan-1-aminium chloride]
mitochondrial membrane polarization (JC-1 red/green ratio), % of the control cells ([1]; drug at its EC20, 24 h): 50.8% | mitochondrial membrane polarization (JC-1 red/green ratio), % of the control cells ([1]; drug at its EC50, 24 h): 50.0% | EC50 [2, 4]: < 75 µM | EC50 [2, 5]: 74.5 µM | EC20 (concentration inducing 20% of cytotoxicity) [2, 6]: 39.5 (34.4 to 44.4) μM | EC80 (concentration inducing 80% of cytotoxicity) [2, 6]: 140.5 (125.4 to 161.2) μM | Bottom (baseline, % control) ([2]; 24 h): 6.754 % control | Top (maximal cell death, % control) ([2]; 24 h): 97.99 % control | EC50 [3]: 92.3 µM | Bottom (baseline, % control) [3]: 5.625 % control | Top (maximal cell death, % control) [3]: 100.0 % control

CCSc1cc(OC)c(CCNCc2ccccc2OC)cc1OC.Cl [25T2-NBOMe, 2-(4-(ethylthio)-2,5-dimethoxyphenyl)-N-(2-methoxybenzyl)ethan-1-aminium chloride]
mitochondrial membrane polarization (JC-1 red/green ratio), % of the control cells ([1]; drug at its EC20, 24 h): 78.7% | mitochondrial membrane polarization (JC-1 red/green ratio), % of the control cells ([1]; drug at its EC50, 24 h): 74.3% | EC50 [2, 4]: > 25 µM | EC50 [2, 5]: 37.4 µM | Bottom (baseline, % control) ([2]; 24 h): 1.962 % control | Top (maximal cell death, % control) ([2]; 24 h): 98.41 % control | EC50 [3]: 46.8 µM | Bottom (baseline, % control) [3]: 3.123 % control | Top (maximal cell death, % control) [3]: 95.97 % control

COc1cc(SC(C)C)c(OC)cc1CCNCc1ccccc1OC.Cl [25T4-NBOMe, 2-(4-(isopropylthio)-2,5-dimethoxyphenyl)-N-(2-methoxybenzyl)ethan-1-aminium chloride]
mitochondrial membrane polarization (JC-1 red/green ratio), % of the control cells ([1]; drug at its EC20, 24 h): 83.5% | mitochondrial membrane polarization (JC-1 red/green ratio), % of the control cells ([1]; drug at its EC50, 24 h): 70.5% | EC50 [2, 5]: 35.7 µM | Top (maximal cell death, % control) ([2]; 24 h): 100.0 % control | EC50 [3]: 36 µM | Bottom (baseline, % control) [3]: 1.753 % control | Top (maximal cell death, % control) [3]: 100.0 % control

CCCSc1cc(OC)c(CCNCc2ccccc2OC)cc1OC.Cl [25T7-NBOMe, 2-(2,5-dimethoxy-4-(propylthio)phenyl)-N-(2-methoxybenzyl)ethan-1-aminium chloride]
mitochondrial membrane polarization (JC-1 red/green ratio), % of the control cells ([1]; drug at its EC20, 24 h): 90.8% | mitochondrial membrane polarization (JC-1 red/green ratio), % of the control cells ([1]; drug at its EC50, 24 h): 76.8% | EC50 [2, 4]: < 22 µM | EC50 [2, 5]: 21.8 µM | Bottom (baseline, % control) ([2]; 24 h): 8.660 % control | Top (maximal cell death, % control) ([2]; 24 h): 94.74 % control | EC50 [3]: 23.3 µM | Bottom (baseline, % control) [3]: 2.444 % control | Top (maximal cell death, % control) [3]: 96.91 % control
